Values joined by “and” are separate entries in the source; they are usually repeats but may differ in a detail not shown here. Identical values can stand only once. Like-named read-outs stand apart in the source and are kept apart here.
System: H460 cells
Test: Cytotoxicity: anti-proliferation activity on H460 cells, multi-well Alamar Blue based assay
Format: cell-based
Method: Cell growth in the presence and absence of the test compound was compared following a multi-well Alamar Blue based assay, and measured by a fluorescence plate reader at 550 nm excitation and 590 nm emission (see Biosource International Inc., Tech Application Notes, Use of Alamar Blue in the measurement of Cell Viability and Toxicity, Determining IC50). H460 cells (ATCC HTB-177 (NCl—H40), 4,000 cells/well/200 μl) were seeded in a 96 well plate in RPMI medium (Invitrogen Corporation, Carlsbad, Calif.). After 24 hours, these plates were divided into 3 groups—Control group, 2 h treatment group and 3 day treatment group. A test compound was added in a range of concentration to each plate in the treatment groups (2 h and 3 day). In the 2 h treatment group, after 2 h, the H460 cells were rinsed to remove the test compound, incubated for 3 days, and stained with AlamarBlue. The cells in the 3-day treatment group were incubated along with the test compound for 3 days, followed by staining with AlamarBlue. In the Control group, AlamarBlue was added to the plate at (i) day 0 and (ii) day 3 and the fluorescence emission measured to establish the control reading. In all the groups, the capacity of the cells to proliferate was measured 6 hours after addition of AlamarBlue by a fluorescence plate reader at 550 nm excitation and 590 nm emission.

[1] = Homo sapiens, NCI-H460, read-out: GI50 (concentration required to inhibit cellular proliferation by 50%)
[2] = Homo sapiens, NCI-H460, 72 h, H460 cells, 3 day incubation with compound, AlamarBlue, read-out: GI50 (concentration required to inhibit cellular proliferation by 50%)
[3] = Homo sapiens, NCI-H460, 72 h, H460 cells, 3 day incubation with compound, AlamarBlue, read-out: GI90 (the source's name)
[4] = Homo sapiens, NCI-H460, H460 cells, 2 h treatment, rinsed, then incubated for 3 days, AlamarBlue, read-out: GI50 (concentration required to inhibit cellular proliferation by 50%)
[5] = Homo sapiens, NCI-H460, H460 cells, 2 h treatment, rinsed, then incubated for 3 days, AlamarBlue, read-out: GI90 (the source's name)
[6] = Homo sapiens, NCI-H460, 2 h, read-out: GI90
[7] = Homo sapiens, NCI-H460, 72 h, read-out: GI50 (concentration required to inhibit cellular proliferation by 50%)
[8] = Homo sapiens, NCI-H460, 72 h, read-out: GI90
[9] = read-out: GI90 (the source's name)
[10] = read-out: GI50 (concentration required to inhibit cellular proliferation by 50%)

SMILES	GI50 [1]	IC90 [6]	GI50 [7]	IC90 [8]	further results
COc1cccc2c1C(=O)c1c(O)c3c(c(O)c1C2=O)C[C@@](O)(C(C)=O)C[C@@H]3O[C@H]1CC(NC(C#N)COCCOS(=O)(=O)c2ccc(C)cc2)C(O)[C@H](C)O1 (some centres unmarked) [Compound 52]	0.3 nM				
COc1cccc2c1C(=O)c1c(O)c3c(c(O)c1C2=O)C[C@@](O)(C(C)=O)C[C@@H]3O[C@@H]1CC(N2CCN(C(=O)OCc3ccc([N+](=O)[O-])o3)CC2C#N)C(O)[C@H](C)O1 (some centres unmarked) [Compound 5]					GI50 [2]: 1 nM; IC90 [3]: 4 nM; GI50 [4]: 3.2 nM; IC90 [5]: 10 nM
COCCOC(=O)N1CCN(C2C[C@H](O[C@H]3C[C@](O)(C(C)=O)Cc4c(O)c5c(c(O)c43)C(=O)c3c(OC)cccc3C5=O)O[C@H](C)C2O)C(C#N)C1 (some centres unmarked) [Compound 14]	0.2 nM	0.4 nM	0.2 nM	0.63 nM	
COc1cccc2c1C(=O)c1c(O)c3c(c(O)c1C2=O)C[C@@](O)(C(C)=O)C[C@@H]3O[C@H]1CC(N2CCN(C(=O)OCC(C)C)CC2)C(O)[C@H](C)O1 (some centres unmarked) [Compound 47]	126 nM	398 nM	20 nM	100 nM	
COc1cccc2c1C(=O)c1c(O)c3c(c(O)c1C2=O)CC(O)(C(C)=O)CC3OC1CC(N2CCN(C(=O)OCC3c4ccccc4-c4ccccc43)CC2)C(O)C(C)O1 (centres unmarked) [Compound 44]					IC90 [9]: 501 nM
COc1cccc2c1C(=O)c1c(O)c3c(c(O)c1C2=O)C[C@@](O)(C(O)CO)C[C@@H]3O[C@H]1CC(N2CCN(C(=O)OC(C)(C)C)CC2C#N)[C@H](O)[C@H](C)O1 (some centres unmarked) [Compound 13]	10 nM	50.1 nM	4 nM	20 nM	
COc1cccc2c1C(=O)c1c(O)c3c(c(O)c1C2=O)C[C@@](O)(C(C)=O)C[C@@H]3O[C@H]1CC(N2CCN(C(=O)OCc3cnc([N+](=O)[O-])n3C)CC2C#N)C(O)[C@H](C)O1 (some centres unmarked) [Compound 3]					GI50 [10]: 2.5 nM and 1.3 nM; IC90 [9]: 7.90 nM and 4.00 nM
COc1cccc2c1C(=O)c1c(O)c3c(c(O)c1C2=O)C[C@@](O)(C(C)=O)C[C@@H]3O[C@H]1CC(N2CCN(C(=O)CC(C)(C)C)CC2)C(O)[C@H](C)O1 (some centres unmarked) [Compound 48]	141 nM	398 nM	63.1 nM	200 nM	
COc1cccc2c1C(=O)c1c(O)c3c(c(O)c1C2=O)CC(O)(C(C)=O)CC3OC1CC(N2CCN(C(C)=O)CC2)C(O)C(C)O1 (centres unmarked) [Compound 46]					IC90 [9]: 158.50 nM and 100.00 nM
COc1cccc2c1C(=O)c1c(O)c3c(c(O)c1C2=O)C[C@@](O)(C(=O)COC(=O)OCc1cnc([N+](=O)[O-])n1C)C[C@@H]3O[C@H]1CC(N2CCOCC2C#N)[C@H](O)[C@H](C)O1 (some centres unmarked) [Compound 60]	0.79 nM	2.5 nM	0.1 nM	0.2 nM	
COc1cccc2c1C(=O)c1c(O)c3c(c(O)c1C2=O)C[C@@](O)(C(C)=O)C[C@@H]3O[C@H]1CC(NC(COCCOS(=O)(=O)c2ccc(C)cc2)OC)C(O)[C@H](C)O1 (some centres unmarked) [Compound 51]	2.5 nM				
COc1cccc2c1C(=O)c1c(O)c3c(c(O)c1C2=O)C[C@]1(O)C[C@@H]3O[C@H]2CC([C@H](O)[C@H](C)O2)N2CCOCC2OCC1=O (some centres unmarked) [Compound 58]					GI50 [2]: 0.14 nM; IC90 [3]: 0.6 nM; GI50 [4]: 0.3 nM; IC90 [5]: 1 nM
COc1cccc2c1C(=O)c1c(O)c3c(c(O)c1C2=O)C[C@@](O)(C(C)=O)C[C@@H]3O[C@H]1CC(NC(C#N)COCCCl)C(O)[C@H](C)O1 (some centres unmarked) [Compound 53]	15.8 nM		2.5 nM		
COCCOC(=O)N1CCN2C(C1)OC1C2C[C@H](O[C@H]2C[C@](O)(C(=O)CO)Cc3c(O)c4c(c(O)c32)C(=O)c2c(OC)cccc2C4=O)O[C@@H]1C (some centres unmarked) [Compound 50]					GI50 [2]: 0.16 nM; IC90 [3]: 0.32 nM; GI50 [4]: 0.13 nM; IC90 [5]: 0.4 nM
COc1cccc2c1C(=O)c1c(O)c3c(c(O)c1C2=O)C[C@@](O)(C(O)CO)C[C@@H]3O[C@H]1CC(N2CCN(C(=O)OC(C)(C)C)CC2)[C@H](O)[C@H](C)O1 (some centres unmarked) [Compound 49]	63.1 nM	158 nM	20 nM	100 nM	
COc1cccc2c1C(=O)c1c(O)c3c(c(O)c1C2=O)C[C@@](O)(C(C)=O)C[C@@H]3O[C@H]1CC(N2CCOCC2O)C(O)[C@H](C)O1 (some centres unmarked) [Compound 59]	200 nM	1000 nM	50 nM	200 nM	
COc1cccc2c1C(=O)c1c(O)c3c(c(O)c1C2=O)C[C@@](O)(C(C)=O)C[C@@H]3O[C@H]1CC(N2CCN(C(=O)C(F)(F)F)CC2)C(O)[C@H](C)O1 (some centres unmarked) [Compound 45]					IC90 [9]: 1000 nM and 630 nM
COc1cccc2c1C(=O)c1c(O)c3c(c(O)c1C2=O)C[C@@](O)(C(C)=O)C[C@@H]3O[C@H]1CC2C(OC3CN(C(=O)OCc4cnc([N+](=O)[O-])n4C)CCN32)[C@H](C)O1 (some centres unmarked) [Compound 28]	0.03 nM	0.1 nM	0.4 nM	1.26 nM	
COc1cccc2c1C(=O)c1c(O)c3c(c(O)c1C2=O)C[C@@](O)(C(C)=O)C[C@@H]3O[C@H]1CC(N2CCOCC2C#N)C(OC(=O)OCC(C)C)[C@H](C)O1 (some centres unmarked) [Compound 57]	125 nM	316 nM	1.58 nM	10 nM	
COc1cccc2c1C(=O)c1c(O)c3c(c(O)c1C2=O)C[C@@](O)(C(C)=O)C[C@@H]3O[C@H]1CC(N2CCN(C(=O)OCc3cnc([N+](=O)[O-])n3C)CC2)C(O)[C@H](C)O1 (some centres unmarked) [Compound 33]					GI50 [10]: 20 nM and 10 nM; IC90 [9]: 79 nM and 50 nM
